Data on 62 compounds can be found in patent US20080200535A1, “Amine Compounds” (Asahi Kasei Pharma Corporation, priority 2006, published 2008).

By EC50 is commonly meant the concentration giving half of the maximal effect. Low readings indicate higher potency in that assay, high ones lower potency in that assay.

T1 sequence (P21453 whole entry): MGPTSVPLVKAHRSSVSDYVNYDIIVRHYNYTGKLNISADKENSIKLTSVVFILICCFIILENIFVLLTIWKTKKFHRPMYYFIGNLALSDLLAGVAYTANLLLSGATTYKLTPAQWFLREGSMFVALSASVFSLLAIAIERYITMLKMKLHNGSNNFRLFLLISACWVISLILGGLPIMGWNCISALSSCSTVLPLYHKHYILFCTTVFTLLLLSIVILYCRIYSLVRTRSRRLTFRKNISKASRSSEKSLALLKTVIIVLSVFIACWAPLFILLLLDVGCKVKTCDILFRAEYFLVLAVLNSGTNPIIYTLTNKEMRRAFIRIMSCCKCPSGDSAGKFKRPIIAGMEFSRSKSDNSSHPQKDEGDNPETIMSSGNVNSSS

This assay addresses T1, S1P1 receptor (Homo sapiens, UniProt P21453).
T1 construct: expressed in transfected cells; membrane preparation
Kind of assay: 35S-GTPγS binding assay using membrane preparation of CHO cell stably expressing S1P1 receptor. The note with it: agonist activity. The format is biochemical. The protocol:
^35s-GTPγS binding assay using membrane preparation of CHO cell stably expressing S1P1 receptor
A G protein-GTPγS binding test associated with a ligand was performed by using a membrane preparation which was obtained from a CHO cell which stably overexpressed S1P1 receptor. In a 96 well-micro-titer dish, the produced membrane protein and a compound which was diluted with a solvent such as DMSO or sphingosine-1-phosphate in various concentrations was incubated in a solution containing 20 mM of Tris-Cl (pH7.5), 100 mM of NaCl, 10 mM of MgCl2, 5μM of GDP, 0.1% of BSA, and […] of ^35s-GTPγS (specific radioactivity, 1250 Ci mmol). The binding was performed for 1 or more hours at room temperature, and the membrane was harvested on a GF/B filter plate by using a Millipore's MultiScreen Separation System to end the binding. After the filter plate was dried for 30 or more minutes, 25 μL of MicroScint-20 was added to each well, and the binding was measured by using the TopCount.
For the agonist activity of compound, the value of a well which a solvent was added to was set to a control value and compared with an increment of an evaluation compound-added well, so that the increment of each concentration of the compound was obtained. EC50 value was calculated under the definition that the value is an agonist concentration required to provide 50% of the maximum increment thereof. […]
In general terms: Binding of GTPγS marks nucleotide exchange on a G protein.
For `O=C(O)C1CCC(NCc2ccc(OCc3cc(-c4ccccc4)c(C(F)(F)F)s3)cc2)CC1` (centres unmarked) [Example 9], a half-maximal effect (EC50) was put at 161 nM. For `O=C(O)[C@H]1CC[C@@H](NCc2ccc(OCc3cc(-c4ccccc4)c(C(F)(F)F)s3)cc2)CC1` [Example 13], a half-maximal effect (EC50) was put at 234 nM. This EC50 and that of the compound before are within 1.5-fold of each other. For `O=C(O)[C@@H]1C[C@@H](O)[C@H](NCc2ccc(OCc3cc(-c4ccccc4)c(C(F)(F)F)s3)cc2)C1` [Example 15], the EC50 is 121 nM.

Regarding `O=C(O)[C@@H]1C[C@H](O)[C@H](NCc2ccc(OCc3cc(-c4ccccc4)c(C(F)(F)F)s3)cc2)C1` [Example 16], the EC50 is 94 nM. As for `O=C(O)[C@H]1CC[C@@H](NCc2ccc(OCc3cc(-c4ccccc4)c(C(F)(F)F)s3)cc2)C1` [Example 18], the figure is 251 nM; as for `O=C(O)[C@@H]1C[C@H](NCc2ccc(OCc3cc(-c4ccccc4)c(C(F)(F)F)s3)cc2)CN1` [Example 22], 268 nM. With `O=C(O)[C@@H]1CC=C[C@@H](NCc2ccc(OCc3cc(-c4ccccc4)c(C(F)(F)F)s3)cc2)C1` [Example 24], the 50% effective concentration (EC50) came to 87 nM.

On to `O=C(O)C(CO)NCc1ccc(OCc2cc(-c3ccccc3)c(C(F)(F)F)s2)cc1` (centres unmarked) [Example 27], for which the concentration giving a half-maximal response (EC50) is 370 nM.

In the case of `O=C(O)[C@@H]1CC[C@H](NCc2ccc3cnn(Cc4ccc(-c5ccccc5)cc4)c3c2)C1` [Example 35, (1R,3s)-3-N-({1-(4-phenylbenzyl)-1H-indazol-6-yl)methyl}aminocyclopentane carboxylic acid], the EC50 came out at 160 nM. Compared with the last compound, the EC50 is about 2.3-fold lower. `O=C(O)CCNCc1ccc(OCc2ccc3c(cnn3Cc3ccccc3)c2)cc1` [Example 37, 3-(4-(1-benzyl-1H-indazol-5-yl)methoxy)benzylaminopropanoic acid] gave a concentration giving a half-maximal response (EC50) of 64 nM. In the case of `O=C(O)CCNCc1ccc(-c2noc(-c3ccc(-c4ncccc4C(F)(F)F)cc3)n2)cc1` [Example 41], a half-maximal response (EC50) required 25 nM. As for `CC(C)/C=C/CCCCc1nc(-c2ccc(CNCCC(=O)O)cc2)no1` [Example 43], the figure is 46 nM; as for `O=C(O)CCNCc1ccc(-c2noc(-c3cnc(OC4CCCC4)c(Cl)c3)n2)cc1` [Example 44], 13 nM; as for `O=C(O)CCNCc1ccc(-c2noc(-c3ccc(OC4CCCCC4)c(C(F)(F)F)c3)n2)cc1` [Example 45], 1.6 nM. For the compound `O=C(O)CCNCc1ccc(-c2noc(-c3ccc(-c4ccccc4)cc3)n2)cc1` [Example 48], it took 3 nM to reach a half-maximal effect (EC50).

For `CC(C)Oc1ccc(-c2nc(-c3ccc(CNCCC(=O)O)cc3)no2)cc1C(F)(F)F` [Example 49], a half-maximal effect (EC50) was put at 0.6 nM. For `O=C(O)CCNCc1ccc(-c2noc(-c3ccc(-c4ccccn4)cc3)n2)cc1` [Example 50] the value was 42 nM. `Cc1cc(-c2ccccc2)ccc1-c1nc(-c2ccc(CNCCC(=O)O)cc2)no1` [Example 55] gave an EC50 of 34 nM.

With `O=C(O)CCNCc1ccc(-c2noc(-c3ccc(-c4ccc(C(F)(F)F)cc4)cc3)n2)cc1` [Example 57], the EC50 was 69 nM. As for `Cc1cc(-c2ccccc2F)ccc1-c1nc(-c2ccc(CNCCC(=O)O)cc2)no1` [Example 58], the figure is 56 nM; as for `O=C(O)CCNCc1ccc(-c2noc(-c3ccc(-c4ccccc4C(F)(F)F)cc3)n2)cc1` [Example 62], 0.4 nM; as for `O=C(O)CCNCc1ccc(-c2noc(-c3ccc(-c4ccccc4F)cc3)n2)cc1` [Example 67], 0.8 nM. Take `O=C(O)CCNCc1ccc(-c2noc(-c3ccc(-c4cccc(F)c4)cc3)n2)cc1` [Example 68]: the EC50 amounted to 5.5 nM.

As for `O=C(O)CCNCc1ccc(-c2noc(-c3ccc(-c4ccc(F)cc4)cc3)n2)cc1` [Example 69], a half-maximal effect (EC50) was put at 14 nM. As for `Cc1cc(-c2nc(-c3ccc(CNCCC(=O)O)cc3)no2)ccc1-c1cccc(F)c1` [Example 74], the figure is 0.12 nM. As for `Cc1cc(-c2nc(-c3ccc(CNCCC(=O)O)cc3)no2)ccc1-c1ccc(F)cc1` [Example 75], the figure is 0.34 nM; as for `Cc1cc(-c2nc(-c3ccc(CNCCC(=O)O)cc3)no2)ccc1-c1cccc(C(F)(F)F)c1` [Example 76], 0.35 nM; as for `Cc1cc(-c2nc(-c3ccc(CNCCC(=O)O)cc3)no2)ccc1-c1ccc(C(F)(F)F)cc1` [Example 77], 13 nM. For `CC(C)Sc1ccc(-c2nc(-c3ccc(CNCCC(=O)O)cc3)no2)cc1` [Example 83] the value was 11 nM; for `Cc1cc(-c2nc(-c3ccc(CNCCC(=O)O)cc3)no2)ccc1-c1ccccc1C(F)(F)F` [Example 86], 0.31 nM. Consider `N#Cc1ccccc1-c1ccc(-c2nc(-c3ccc(CNCCC(=O)O)cc3)no2)c(F)c1` [Example 88], for which it took 10 nM to reach a half-maximal effect (EC50). Consider `N#Cc1cc(-c2nc(-c3ccc(CNCCC(=O)O)cc3)no2)ccc1-c1ccccc1F` [Example 89], for which the 50% effective concentration (EC50) turned out to be 0.17 nM. The compound `Cc1cc(-c2nc(-c3ccc(CNCCC(=O)O)cc3)no2)ccc1C1CCCC1` [Example 91] had an EC50 of 0.25 nM. This EC50 and that of the compound before are within 1.5-fold of each other. As for `Cc1cc(-c2nc(-c3ccc(CNCCC(=O)O)cc3)no2)ccc1C1CCCCC1` [Example 92], the figure is 0.2 nM. For `O=C(O)CCNCc1ccc(-c2noc(-c3ccc(-c4ccccc4)cn3)n2)cc1` [Example 95] the value was 25 nM. On to `O=C(O)CCNCc1ccc(-c2noc(-c3ccc(-c4ccccc4F)c(C(F)(F)F)c3)n2)cc1` [Example 98], for which the EC50 was 0.37 nM. Take `O=C(O)CCNCc1ccc(-c2noc(-c3ccc(-c4ccccc4C(F)(F)F)c(C(F)(F)F)c3)n2)cc1` [Example 99]: the response was half-maximal at 1.3 nM (EC50). In the case of `O=C(O)CCNCc1ccc(-c2noc(-c3ccc(-c4ccccc4OC(F)(F)F)c(C(F)(F)F)c3)n2)cc1` [Example 100], the 50% effective concentration (EC50) was 1.7 nM.

Take `CCc1cc(-c2nc(-c3ccc(CNCCC(=O)O)cc3)no2)ccc1-c1ccccc1` [Example 101]: a half-maximal response (EC50) required 0.41 nM. Turning to `CCc1cc(-c2nc(-c3ccc(CNCCC(=O)O)cc3)no2)ccc1-c1ccccc1C#N` [Example 102], the 50% effective concentration (EC50) amounted to 0.41 nM.

For the compound `O=C(O)CCNCc1ccc(-c2noc(-c3ccc(/C=C/C(F)(F)F)cc3)n2)cc1` [Example 103], the response was half-maximal at 3.9 nM (EC50). As for `CCc1cc(-c2nc(-c3ccc(CNCCC(=O)O)cc3)no2)ccc1-c1ccccc1F` [Example 108], the figure is 0.29 nM; as for `Cc1ccccc1-c1ccc(-c2nc(-c3ccc(CNCCC(=O)O)cc3)no2)cc1C` [Example 110], 0.35 nM; as for `Cc1cc(-c2nc(-c3ccc(CNCCC(=O)O)cc3)no2)ccc1-c1ccccc1Cl` [Example 111], 0.17 nM. For `Cc1cc(-c2nc(-c3ccc(CNCCC(=O)O)cc3)no2)ccc1-c1cccs1` [Example 112] the value was 0.34 nM; for `Cc1cc(-c2nc(-c3ccc(CNCCC(=O)O)cc3)no2)ccc1-c1ccsc1` [Example 113], 0.07 nM.

On to `Cc1cc(-c2nc(-c3ccc(CNCCC(=O)O)cc3)no2)ccc1-c1ccccc1OC(F)(F)F` [Example 114], for which the response was half-maximal at 0.19 nM (EC50). For `Cc1cc(-c2nc(-c3ccc(CNCCC(=O)O)cc3)no2)ccc1-c1cscc1C` [Example 115], it took 0.04 nM to reach a half-maximal effect (EC50). As for `Cc1cc(-c2nc(-c3ccc(CNCCC(=O)O)cc3)no2)ccc1-c1ccco1` [Example 116], the figure is 1.5 nM; as for `Cc1cc(-c2nc(-c3ccc(CNCCC(=O)O)cc3)no2)ccc1-c1ccccc1C(C)C` [Example 118], 0.45 nM; as for `O=C(O)CCNCc1ccc(-c2noc(-c3ccc(-c4ccccc4F)s3)n2)cc1` [Example 120], 3.6 nM. In turn, `O=C(O)CCNCc1ccc(-c2noc(-c3cc(-c4ccccc4)c(C(F)(F)F)s3)n2)s1` [Example 124] registered an EC50 of 0.2 nM. As for `CC(C)Cc1ccc(-c2nc(-c3ccc(CNCCC(=O)O)s3)no2)cc1` [Example 128], the figure is 16 nM; as for `O=C(O)[C@H]1C[C@H](NCc2ccc(-c3noc(-c4cc(-c5ccccc5)c(C(F)(F)F)s4)n3)cc2)C1` [Example 130], 4.5 nM; as for `Cc1cc(-c2nc(-c3ccc(CN[C@H]4C[C@H](C(=O)O)C4)cc3)no2)ccc1-c1ccccc1` [Example 134], 1.2 nM.

`CC(C)COc1ccc(-c2nc(-c3ccc(CN[C@H]4C[C@H](C(=O)O)C4)cc3)no2)cc1C(F)(F)F` [Example 136]: the EC50 was 4 nM. In turn, `O=C(O)[C@@H]1CC[C@@H](NCc2ccc(-c3noc(-c4cc(-c5ccccc5)c(C(F)(F)F)s4)n3)cc2)C1` [Example 138] returned an EC50 of 21 nM.

In the case of `CC(C)Cc1ccc(-c2nc(-c3ccc(CN[C@@H]4CC[C@@H](C(=O)O)C4)cc3)no2)cc1` [Example 139], the half-maximal effective concentration (EC50) came to 23 nM. Consider `Cc1cc(-c2nc(-c3ccc(CN[C@@H]4CC[C@@H](C(=O)O)C4)cc3)no2)ccc1-c1ccccc1` [Example 142], for which the half-maximal effective concentration (EC50) was 6.7 nM. This EC50 is about 3.4-fold lower than that of the compound before.

In the case of `Cc1cc(CNCCC(=O)O)ccc1-c1noc(-c2ccc(CC(C)C)cc2)n1` [Example 144], the EC50 was found to be 0.27 nM. Against the preceding compound, the EC50 is about 25-fold lower.

`Cc1cc(CN[C@H]2C[C@H](C(=O)O)C2)ccc1-c1noc(-c2ccc(CC(C)C)cc2)n1` [Example 146, (1R,3R)-3-(4-(5-(4-isobutylphenyl)-1,2,4,-oxadiazol-3-yl)-3-methylbenzylamino)cyclobutanecarboxylic acid]: the half-maximal effective concentration (EC50) came out at 4.5 nM.

In turn, `O=C(O)CCNCc1ccc(OCc2cc(-c3ccccc3)c(C(F)(F)F)s2)cc1Cl` [Example 149] had an EC50 of 4.5 nM. This counts as single-digit nanomolar.
